In US20090274714A1, “TUMOUR-ASSOCIATED PEPTIDES BINDING TO HUMAN LEUKOCYTE ANTIGEN (HLA) CLASS I OR II MOLECULES AND RELATED ANTI-CANCER VACCINE” (Immatics Boitechnologies GmhH, priority 2005, published 2009):
Where two headings read alike, the source gives them in different places. Values belong to the molecule of their own block, whether it stands above or below them. Ends that are not written are not given here.

Tests used:
[1] = Physico-chemical characteristics: solubility; details: solvent giving clear and colourless solution at 1 mg/ml
[2] = system: T-cells; assay: Summary of in vitro immunogenicity (killer assay, cytokine release/staining, tetramer detection); type: cell-based, human; details: reference: unpublished
Description: As in the latter case, several tumour cell lines endogenously expressing the antigen are also recognized.
IMA contains 10 HLA class I-binding peptides. To test the peptides regarding their in vitro immunogenicity, CD8-positive cytotoxic T-cells were generated from autologous peripheral blood mononuclear cells (PBMC) from healthy donors using single peptides contained in IMA and the activity of these cytotoxic T-cells was tested with chromium release assays and detection of T-cells with HLA tetramers in flow cytometry. Detailed data is shown for one exemplary peptide (IMA-MET-001) for both methods, the data for the other peptides is summarized in Table 8 above.
In the first step, cytotoxic T-cells are generated (primed) in vitro by repeated stimulation of peripheral blood mononuclear cells (PBMC) from healthy HLA-A*02 positive donors with the specific peptide to be tested. The priming can be done either using autologous dendritic cells generated from blood monocytes of the donor or using HLA tetramer-loaded beads.
A. Cytotoxic killing of target: In the second step, cytoxicity of such primed cytotoxic T-cells (CTLs) are tested by labelling target cells with radioactive chromium and incubating target cells with generated CTLs. The amount of radioactive chromium released into the supernatant can be correlated directly to proportion of killed target cells.
B. Detection of T-cells with HLA tetramers: Alternatively, in the second step primed CTLs with specificity for a given peptide are detected using HLA tetramers. Tetramers consist of four peptide-loaded HLA-A*02 molecules coupled to each other. These constructs allow specific labelling of the cognate T-cell receptor that recognizes the HLA-peptide-complex in the tetramer and by labelling of the tetramer with a fluorochrome followed by analysis in flow cytometry (FACS).

[3] = system: CD4-positive T-cells; assay: Intracellular IFNγ staining of in vitro primed CD4-positive T-cells; type: cell-based, human
Description: First, CD4-positive T-cells were generated (primed) in vitro by repeated stimulation of peripheral blood mononuclear cells (PBMC) from healthy donors with the specific peptide to be tested in the presence of IL-12. The priming was performed using autologous dendritic cells generated from blood monocytes of the donors. In the second step, the activity of primed CD4-positive T-cells specific for the given peptide were tested by measurement of IFNγ production by intracellular IFNγ staining using a fluorescently labelled antibody. The analysis was done by flow cytometry (FACS).
Human DCs were prepared out of PBMCs from freshly drawn blood from healthy donors. PBMCs were isolated using a Ficoll density gradient (Lymphocyte Separation Medium, PAA Laboratories GmbH, Pasching, Austria). The obtained cells were washed, resuspended in X-Vivo 15 medium supplemented with 50 U/ml penicillin, 50 μg/ml streptomycin and 2 mM L-Glutamine (BioWhittaker, Verviers, Belgium) and plated at a density of 7×10^6 cells/ml. […]
Cryopreserved PBMCs were thawed, washed two times in X-Vivo 15 medium, resuspended at 10^7 cells/ml in T-cell medium and cultured overnight to reduce unspecific IFNγ production (Provenzano 2002). […] Cells were analyzed using a Cytofix/Cytoperm Plus kit (Becton Dickinson) and CD4-FITC− (Immunotools), IFNγ-PE- and CD8-PerCP clone SKI-antibodies (Becton Dickinson). After staining, cells were analyzed on a three-color FACSCalibur (Becton Dickinson).
To generate antigen-specific CD4-positive T-cells and to test the peptide on promiscuous binding, PBMCs of 4 healthy donors with different HLA-DR alleles (FIG. 7) were stimulated using peptide-pulsed autologous DCs. As a read-out system for the generation of antigen-specific CD4-positive T-cells IFNγ production was assessed by flow cytometry. T-cells were analyzed after the third and the fourth stimulation by intracellular IFNγ staining plus CD4-FITC and CD8-PerCP staining to determine the percentage of IFNγ-producing cells in specific T-cell subpopulations. […]

[4] = system: T-cells; details: reference: published literature; cited from earlier work
[5] = system: HLA-A*02 positive cell lines HCT 116, A498, MZ 1257, MCF-7, MeI 1479 and U266 that express c-Met; details: HLA-A2+/c-Met+ cell lines; SK-OV-3, Croft, K 562 not recognized; cited from earlier work
[6] = system: U 266 and A 498; details: inhibitor to target ratio 20:1; cited from earlier work
[7] = system: peptide loaded T2 cells and autologous DC; details: cited from earlier work
[8] = system: T-cells; details: peptide not vaccinated; not present prior to vaccination; 2 RCC patients; cited from earlier work
[9] = University of Tübingen trial, cited from earlier work
[10] = system: renal cell carcinoma; details: monotherapy, advanced RCC; cited from earlier work
[11] = biological target: T1, biotinylated recombinant HLA-A*0201 molecules lacking the transmembrane domain (human, biotinylated at the carboxy terminus of the heavy chain); assay: recombinant HLA-A*0201 refolded with the peptide, used on beads and as tetramer
T1 construct: tetramerised on streptavidin-PE or streptavidin-APC at a 4:1 molar ratio, or coupled to streptavidin beads; also called HLA-A*0201 tetramer; HLA tetramers

[12] = biological target: T1, biotinylated recombinant HLA-A*0201 …; assay: tetrameric recombinant HLA-A*0201 multimer loaded with the peptide, flow cytometry reagent

Solubility (Clear and colourless solution 1 mg/ml) [1]: water
Molecule: ALADGVQKV-OH [IMA-APO-001]

Solubility (Clear and colourless solution 1 mg/ml) [1]: 20% acetic acid
Molecule: ALFDGDPHL-OH [IMA-K67-001]
In vitro immunogenicity (assay by which shown) [2]: Tetramer detection

Solubility (Clear and colourless solution 1 mg/ml) [1]: 10% acetic acid
Molecule: SVASTITGV-OH [IMA-ADF-001]
In vitro immunogenicity (assay by which shown) [4]: Killer assay
specific T-cells after vaccination with non-related MUC peptides (epitope spreading) [8]: detected

Solubility (Clear and colourless solution 1 mg/ml) [1]: 90% acetic acid
Molecule: SVFAGVVGV-OH [IMA-GUC-001]

Solubility (Clear and colourless solution 1 mg/ml) [1]: 10% acetic acid
Molecule: VMAGDIYSV-OH [IMA-ADF-002]
In vitro immunogenicity (assay by which shown) [2]: Tetramer detection

binding result [12]: binds
B2: IMA-CCN-001 (peptide from Cyclin D1) (peptide)
peptide: LLGATCMFV
notes: HLA class I TUMAP; not identified by elution from tumour tissue; also called rCCN-001; CNN-001

binding result [12]: binds
Molecule: ALFDGDPHL (HLA class I TUMAP) [IMA-K67-001 (peptide from KIAA0367)]

Further lines, the molecule ahead of its results:

Molecule: SQDDIKGIQKLYGKRS-OH [IMA-MMP-001]
In vitro immunogenicity (assay by which shown) [2]: Cytokine staining
healthy donors in whom CD4-positive T-cell responses were elicited ([3]; 4 healthy donors with different HLA-DR alleles, positive if more than two fold over negative control): three out of four
CD4-positive T-cell reactivity (intracellular IFN gamma) ([3]; Donor 1, 2 and 3, after the third and the fourth stimulation): showed CD4-positive T-cells reactive
CD4-positive T-cell reactivity (intracellular IFN gamma) ([3]; Donor 4): always negative

Molecule: LLGATCMFV-OH [IMA-CCN-001]
In vitro immunogenicity (assay by which shown) [4]: Killer assay (allogeneic T cells)
Solubility (Clear and colourless solution 1 mg/ml) [1]: 50% acetic acid

Molecule: YVDPVITSI-OH [IMA-MET-001]
In vitro immunogenicity (assay by which shown) [4]: Killer assay, cytokine staining, tetramer
lysis of tumour cells endogenously expressing c-Met by induced CTL [5]: able to efficiently lyse malignant cells expressing both HLA-A2 and c-Met
effect of cold T2-cells pulsed with cognate peptide on lysis of tumour cells [6]: reduced the lysis of tumour cells
cytotoxicity of induced CTL against peptide-loaded targets [7]: antigen-specific killing

Molecule: LAALPHSCL-OH [IMA-RGS-001]
In vitro immunogenicity (assay by which shown) [2]: Tetramer detection
Solubility (Clear and colourless solution 1 mg/ml) [1]: water

Molecule: STAPPVHNV-OH [IMA-MUC-001]
In vitro immunogenicity (assay by which shown) [4]: Killer assay, cytokine release
autoimmune effects ([9]; administered with autologous dendritic cells): no autoimmune effects
tolerability ([9]; loaded on dendritic cells): very well tolerated
Solubility (Clear and colourless solution 1 mg/ml) [1]: 10% acetic acid

Molecule: IFNα
response rate, initially reported [10]: 25-30%
true response rate suggested by additional trials [10]: about 10%

B1: IMA-MET-001 (peptide from c-met proto-oncogene) (peptide)
peptide: YVDPVITSI
notes: HLA class I TUMAP; also called c-Met peptide
binding result [11]: binds
